Experimental data from ChEMBL document CHEMBL1129129, “Modelisation, synthesis and antiviral evaluation of new 2,3-disubstituted thiazolidinone nucleoside analogues” (Bioorg Med Chem Lett, 1996).

Tests used:
Anas sp. [1] = test: Compound was tested for its cytotoxicity against duck hepatitis B virus in duck fetal hepatocytes culture; assay type: functional; conditions: Hepatocyte
Anas sp. [2] = test: Compound was tested for its antiviral activity against hepatitis B virus(DHBV) in duck fetal hepatocytes culture; assay type: functional, organism-based; conditions: Hepatocyte
MT4 [3] = test: Compound was tested for its cytotoxicity against HIV-1 infected MT-4 cell lines; assay type: functional; conditions: Homo sapiens
MT4 [4] = test: Compound was tested to inhibit HIV-1 replication in MT-4 cell lines; value may range from 1 - 10; assay type: functional, cell-based; conditions: Homo sapiens
MT4 [5] = test: Compound was tested to inhibit HIV-1 replication in MT-4 cell lines; assay type: functional, cell-based; conditions: Homo sapiens
MT4 [6] = test: Compound was tested to inhibit HIV-1 replication in MT-4 cell lines; value may range from 5 - 15; assay type: functional, cell-based; conditions: Homo sapiens

| Compound | CC50 (Anas sp. [1]) | IC50 (Anas sp. [2]) | CC50 (MT4 [3]) | IC50 (MT4 [4]) | IC50 (MT4 [5]) | IC50 (MT4 [6]) |
| --- | --- | --- | --- | --- | --- | --- |
| Nc1nc(=O)n(CCN2C(=O)CSC2CO)cc1F (stereo not drawn) | 150 µM | 2 µM | 100 µM | 10 µM |  |  |
| Nc1ccn(CCN2C(=O)CSC2COC(=O)c2ccccc2)c(=O)n1 (stereo not drawn) |  |  | ~100 µM |  | ≥ 100 µM |  |
| Nc1ccn(CCN2C(=O)CSC2CO)c(=O)n1 (stereo not drawn) | 100 µM | 2 µM | ~300 µM |  | ≥ 300 µM |  |
| Cc1cn(CCN2C(=O)CSC2CO)c(=O)[nH]c1=O (stereo not drawn) | ≥ 200 µM | 2 µM | 100 µM |  |  | 15 µM |
| Nc1nc(=O)n(CCN2C(=O)CSC2COC(=O)c2ccccc2)cc1F (stereo not drawn) |  |  | 100 µM | 10 µM |  |  |
| Nc1ncnc2c1ncn2CCN1C(=O)CSC1CO (stereo not drawn) | 200 µM | 2 µM | 100 µM | 10 µM |  |  |
| Nc1ccn(C2CS[C@H](CO)O2)c(=O)n1 (single isomer, unassigned) [LAMIVUDINE] | > 400 µM | 0.1 µM | 100 µM |  |  |  |
